Results from patent US20250368666A1, “INDAZOLE COMPOUNDS” (TYRA BIOSCIENCES, INC., priority 2022, published 2025).

Legend:
[1] = test system: KATO-III cell line (FGFR2 amplification); assay: Cancer cell line cell viability assay (Cell Titer-Glo), 72 hr; format: cell-based; settings: Homo sapiens, KATO III
Summary of the method: (§1)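 5,000-20,000 cells/well o/n; cpd 9-pt 4x dil from 3 μM, n=3; 37° C/5% CO2; CTG 2.0 lumi; % DMSO ctrl; 4PL IC50.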

[2] = test system: RT112/84 cell line (FGFR3-fusion); assay: as above; format: cell-based; settings: Homo sapiens, RT112/84, RT112/84 cell line (FGFR3-fusion)
Summary of the method: as §1

[3] = test system: KG-1 cell line (FGFR 1-fusion); assay: as above; format: cell-based; settings: Homo sapiens, KG-1, KG-1 cell line (FGFR1-fusion)
Summary of the method: as §1

FGFR3 (V555M) = biological target: T1, FGFR3 (V555M) (Homo sapiens, UniProt P22607, V555M); assay: Kinase binding assay (kinase-tagged T7 phage, affinity beads, qPCR), Kd; settings: V555M mutant; read-out: FGFR3 (V555M) (Kd nM)
T1 construct: made in house; host or cells: E. coli (BL21-derived), T7 phage
T1 sequence (P22607 23-806 V555M): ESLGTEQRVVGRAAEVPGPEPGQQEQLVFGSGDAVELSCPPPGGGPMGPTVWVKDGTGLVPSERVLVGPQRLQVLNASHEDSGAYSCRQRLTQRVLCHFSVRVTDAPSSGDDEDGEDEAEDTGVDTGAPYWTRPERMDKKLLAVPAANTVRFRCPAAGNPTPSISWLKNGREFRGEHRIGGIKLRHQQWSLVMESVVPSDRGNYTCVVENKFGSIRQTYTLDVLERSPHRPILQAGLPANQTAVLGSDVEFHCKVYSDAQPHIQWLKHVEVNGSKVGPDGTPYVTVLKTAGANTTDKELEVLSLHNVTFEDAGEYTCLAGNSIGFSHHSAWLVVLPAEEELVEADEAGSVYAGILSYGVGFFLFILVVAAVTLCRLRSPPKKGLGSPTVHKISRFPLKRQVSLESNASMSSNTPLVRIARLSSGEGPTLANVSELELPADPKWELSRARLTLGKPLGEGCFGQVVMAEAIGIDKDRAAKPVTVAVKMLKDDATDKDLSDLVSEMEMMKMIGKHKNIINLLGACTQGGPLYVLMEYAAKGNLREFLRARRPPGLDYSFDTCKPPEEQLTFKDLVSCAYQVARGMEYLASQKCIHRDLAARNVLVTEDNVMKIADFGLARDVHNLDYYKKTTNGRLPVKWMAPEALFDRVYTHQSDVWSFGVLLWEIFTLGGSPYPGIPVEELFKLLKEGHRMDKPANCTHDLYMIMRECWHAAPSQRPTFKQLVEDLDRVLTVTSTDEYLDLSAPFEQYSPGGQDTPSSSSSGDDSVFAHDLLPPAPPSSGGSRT
Summary of the method: (§2)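 Phage-tagged kinase capture on small-molecule affinity resin, compound competition, qPCR quantitation; Kd from Levenberg-Marquardt Hill fit.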

FGFR3 = biological target: T2, FGFR3 (Homo sapiens, UniProt P22607); assay: as above; settings: read-out: FGFR3 (Kd nM)
T2 construct: made in house; host or cells: E. coli (BL21-derived), T7 phage
T2 sequence (P22607 23-806): as the sequence (P22607 23-806 V555M) above, with M533V counted along it
Summary of the method: as §2

FGFR1 = biological target: T3, FGFR1 (Homo sapiens, UniProt P11362); assay: as above; settings: read-out: FGFR1 (Kd nM)
T3 construct: made in house; host or cells: E. coli (BL21-derived), T7 phage
T3 sequence (P11362 22-822): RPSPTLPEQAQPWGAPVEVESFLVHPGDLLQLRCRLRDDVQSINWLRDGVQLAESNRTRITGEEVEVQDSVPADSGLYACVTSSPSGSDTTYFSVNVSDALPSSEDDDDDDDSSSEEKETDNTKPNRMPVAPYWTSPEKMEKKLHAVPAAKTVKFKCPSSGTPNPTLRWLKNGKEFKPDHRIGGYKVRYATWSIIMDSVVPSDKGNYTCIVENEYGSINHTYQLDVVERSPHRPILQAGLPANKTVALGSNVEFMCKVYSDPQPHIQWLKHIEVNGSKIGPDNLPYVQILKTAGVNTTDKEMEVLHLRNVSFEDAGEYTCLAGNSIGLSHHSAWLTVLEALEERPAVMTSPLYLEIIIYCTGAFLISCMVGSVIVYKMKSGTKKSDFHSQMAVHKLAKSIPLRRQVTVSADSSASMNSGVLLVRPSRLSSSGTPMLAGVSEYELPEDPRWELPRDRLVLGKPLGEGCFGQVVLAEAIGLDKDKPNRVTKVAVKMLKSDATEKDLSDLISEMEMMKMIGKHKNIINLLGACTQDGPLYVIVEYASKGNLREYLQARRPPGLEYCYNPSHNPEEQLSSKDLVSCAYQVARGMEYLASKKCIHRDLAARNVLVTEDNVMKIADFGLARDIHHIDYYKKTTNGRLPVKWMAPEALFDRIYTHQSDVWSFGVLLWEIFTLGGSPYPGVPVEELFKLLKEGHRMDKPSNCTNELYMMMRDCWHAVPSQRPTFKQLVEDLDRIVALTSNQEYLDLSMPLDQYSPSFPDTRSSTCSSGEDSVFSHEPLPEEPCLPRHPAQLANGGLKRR
Summary of the method: as §2

FGFR2 = biological target: T4, FGFR2 (Homo sapiens, UniProt P21802); assay: as above; settings: read-out: FGFR2 (Kd nM)
T4 construct: made in house; host or cells: E. coli (BL21-derived), T7 phage
T4 sequence (P21802 22-821): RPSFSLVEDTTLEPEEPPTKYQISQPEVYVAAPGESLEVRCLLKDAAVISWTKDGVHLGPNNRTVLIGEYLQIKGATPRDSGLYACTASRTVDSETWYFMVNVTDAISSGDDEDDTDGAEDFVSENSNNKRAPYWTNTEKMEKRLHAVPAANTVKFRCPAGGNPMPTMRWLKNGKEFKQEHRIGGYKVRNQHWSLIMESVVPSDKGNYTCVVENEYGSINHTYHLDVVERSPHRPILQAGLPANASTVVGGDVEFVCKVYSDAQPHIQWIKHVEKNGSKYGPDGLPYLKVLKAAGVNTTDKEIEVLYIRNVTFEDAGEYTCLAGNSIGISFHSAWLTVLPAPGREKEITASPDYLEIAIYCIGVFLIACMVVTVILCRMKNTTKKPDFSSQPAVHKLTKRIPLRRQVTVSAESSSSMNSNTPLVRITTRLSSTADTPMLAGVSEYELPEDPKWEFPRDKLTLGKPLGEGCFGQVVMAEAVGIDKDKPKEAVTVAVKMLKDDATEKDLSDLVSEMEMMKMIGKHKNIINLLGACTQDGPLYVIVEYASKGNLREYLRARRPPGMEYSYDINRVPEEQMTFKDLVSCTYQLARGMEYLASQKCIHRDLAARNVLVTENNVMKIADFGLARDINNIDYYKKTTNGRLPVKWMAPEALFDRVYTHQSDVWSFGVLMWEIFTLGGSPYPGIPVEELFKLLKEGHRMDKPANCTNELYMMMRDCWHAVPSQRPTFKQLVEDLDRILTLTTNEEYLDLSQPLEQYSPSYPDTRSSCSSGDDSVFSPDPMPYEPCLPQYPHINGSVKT
Summary of the method: as §2

FGFR4 = biological target: T5, FGFR4 (Homo sapiens, UniProt P22455); assay: as above; settings: read-out: FGFR4 (Kd nM)
T5 construct: made in house; host or cells: E. coli (BL21-derived), T7 phage
T5 sequence (P22455 22-802): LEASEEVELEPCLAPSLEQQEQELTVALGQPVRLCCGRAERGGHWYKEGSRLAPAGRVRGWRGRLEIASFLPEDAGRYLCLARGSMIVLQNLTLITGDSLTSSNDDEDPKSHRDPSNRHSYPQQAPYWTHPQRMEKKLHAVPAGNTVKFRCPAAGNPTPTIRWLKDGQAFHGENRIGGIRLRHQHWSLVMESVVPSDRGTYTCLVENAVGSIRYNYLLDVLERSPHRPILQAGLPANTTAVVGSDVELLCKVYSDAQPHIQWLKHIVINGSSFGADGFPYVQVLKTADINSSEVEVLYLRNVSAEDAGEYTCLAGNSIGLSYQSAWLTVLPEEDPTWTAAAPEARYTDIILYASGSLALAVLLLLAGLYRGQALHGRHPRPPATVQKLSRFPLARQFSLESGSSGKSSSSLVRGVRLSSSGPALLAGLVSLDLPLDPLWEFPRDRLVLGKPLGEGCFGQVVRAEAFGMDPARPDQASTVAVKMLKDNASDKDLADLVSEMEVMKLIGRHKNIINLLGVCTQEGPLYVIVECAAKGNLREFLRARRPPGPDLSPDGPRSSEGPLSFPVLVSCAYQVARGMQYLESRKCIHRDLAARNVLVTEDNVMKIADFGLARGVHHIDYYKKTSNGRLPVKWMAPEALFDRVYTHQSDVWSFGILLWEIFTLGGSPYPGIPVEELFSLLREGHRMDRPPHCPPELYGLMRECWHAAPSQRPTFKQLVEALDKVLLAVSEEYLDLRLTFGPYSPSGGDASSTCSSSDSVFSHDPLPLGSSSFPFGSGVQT
Summary of the method: as §2

Row | SMILES | IC50 [1] | IC50 [2] | IC50 [3] | Kd (FGFR3 (V555M)) | Kd (FGFR3) | Kd (FGFR1) | Kd (FGFR2) | Kd (FGFR4)
1 | CC(C)NCC1(C)CN(c2ncc(-c3n[nH]c4ccc(O[C@H](C)c5c(Cl)cncc5Cl)cc34)cc2F)C1 [Example 108, (R)-N-((1-(5-(5-(1-(3,5-dichloropyridin-4-yl)ethoxy)-1H-indazol-3-yl)-3-fluoropyridin-2-yl)-3-methylazetidin-3-yl)methyl)propan-2-amine] | 0.1 to 50 nM | 0.1 to 50 nM | 0.1 to 50 nM | 1 to 50 nM | 1 to 50 nM | 1 to 50 nM | 1 to 50 nM | 1 to 50 nM
2 | C[C@@H](Oc1ccc2[nH]nc(-c3cnc(N4CC(C)(CN5CCCC5)C4)c(F)c3)c2c1)c1c(Cl)cncc1Cl [Example 110, (R)-5-(1-(3,5-dichloropyridin-4-yl)ethoxy)-3-(5-fluoro-6-(3-methyl-3-(pyrrolidin-1-ylmethyl)azetidin-1-yl)pyridin-3-yl)-1H-indazole] | 0.1 to 50 nM | 0.1 to 50 nM | 0.1 to 50 nM | 1 to 50 nM | 1 to 50 nM | 1 to 50 nM | 1 to 50 nM | 1 to 50 nM
3 | C[C@@H](Oc1ccc2[nH]nc(-c3cnc(N4CC(C)(N5CC(C)(C)C5)C4)c(F)c3)c2c1)c1c(Cl)cncc1Cl [Example 111, (R)-5-(1-(3,5-dichloropyridin-4-yl)ethoxy)-3-(5-fluoro-6-(3,3,3′-trimethyl-[1,3′-biazetidin]-1′-yl)pyridin-3-yl)-1H-indazole] | 0.1 to 50 nM | 0.1 to 50 nM | 50 to 200 nM | 1 to 50 nM | 1 to 50 nM | 1 to 50 nM | 1 to 50 nM | 1 to 50 nM
4 | C[C@@H](Oc1ccc2[nH]nc(-c3cnc(N4CC(C)(NCCO)C4)c(F)c3)c2c1)c1c(Cl)cncc1Cl [Example 114, (R)-2-((1-(5-(5-(1-(3,5-dichloropyridin-4-yl)ethoxy)-1H-indazol-3-yl)-3-fluoropyridin-2-yl)-3-methylazetidin-3-yl)amino)ethan-1-ol] | 0.1 to 50 nM | 0.1 to 50 nM | 0.1 to 50 nM | 1 to 50 nM | 1 to 50 nM | 1 to 50 nM | 1 to 50 nM | 1 to 50 nM
5 | C[C@@H](Oc1ccc2[nH]nc(-c3ccc(N4CC(C)(NCC(C)(C)O)C4)nc3)c2c1)c1c(Cl)cncc1Cl [Example 115, (R)-1-((1-(5-(5-(1-(3,5-dichloropyridin-4-yl)ethoxy)-1H-indazol-3-yl)pyridin-2-yl)-3-methylazetidin-3-yl)amino)-2-methylpropan-2-ol] | 0.1 to 50 nM | 0.1 to 50 nM | 0.1 to 50 nM | 1 to 50 nM | 1 to 50 nM | 1 to 50 nM | 1 to 50 nM | 1 to 50 nM
6 | CC(C)NC1(C)CN(c2ncc(-c3n[nH]c4ccc(O[C@H](C)c5c(Cl)cncc5Cl)cc34)cc2F)C1 [Example 117, (R)-1-(5-(5-(1-(3,5-dichloropyridin-4-yl)ethoxy)-1H-indazol-3-yl)-3-fluoropyridin-2-yl)-N-isopropyl-3-methylazetidin-3-amine] | 50 to 200 nM | 0.1 to 50 nM | 50 to 200 nM | 1 to 50 nM | 1 to 50 nM | 1 to 50 nM | 1 to 50 nM | 1 to 50 nM
7 | C[C@@H](Oc1ccc2[nH]nc(-c3cnc(N4CC(C)(NCC5(O)CC5)C4)c(F)c3)c2c1)c1c(Cl)cncc1Cl [Example 118, (R)-1-(((1-(5-(5-(1-(3,5-dichloropyridin-4-yl)ethoxy)-1H-indazol-3-yl)-3-fluoropyridin-2-yl)-3-methylazetidin-3-yl)amino)methyl)cyclo-propan-1-ol] | 0.1 to 50 nM | 0.1 to 50 nM | 0.1 to 50 nM | 1 to 50 nM | 1 to 50 nM | 1 to 50 nM | 1 to 50 nM | 1 to 50 nM
8 | COc1cc2[nH]nc(-c3cnc(N4CC(C)(NCC5CC5)C4)c(F)c3)c2cc1O[C@H](C)c1c(Cl)cncc1Cl [Example 126, (R)-N-(cyclopropylmethyl)-1-(5-(5-(1-(3,5-dichloropyridin-4-yl)ethoxy)-6-methoxy-1H-indazol-3-yl)-3-fluoropyridin-2-yl)-3-methylazetidin-3-amine] | 0.1 to 50 nM | 0.1 to 50 nM | 0.1 to 50 nM | 1 to 50 nM | 1 to 50 nM | 1 to 50 nM | 1 to 50 nM | 1 to 50 nM
9 | CC(C)NC1(C)CN(c2ncc(-c3n[nH]c4cc(F)c(O[C@H](C)c5c(Cl)cncc5Cl)cc34)cc2F)C1 [Example 127, (R)-1-(5-(5-(1-(3,5-dichloropyridin-4-yl)ethoxy)-6-fluoro-1H-indazol-3-yl)-3-fluoropyridin-2-yl)-N-isopropyl-3-methylazetidin-3-amine] | 50 to 200 nM | 0.1 to 50 nM | 50 to 200 nM | 1 to 50 nM | 1 to 50 nM | 1 to 50 nM | 1 to 50 nM | 1 to 50 nM
10 | C[C@@H](Oc1cc2c(-c3cnc(N4CC(C)(N5CCCC5)C4)c(F)c3)n[nH]c2cc1F)c1c(Cl)cncc1Cl [Example 128, (R)-5-(1-(3,5-dichloropyridin-4-yl)ethoxy)-6-fluoro-3-(5-fluoro-6-(3-methyl-3-(pyrrolidin-1-yl)azetidin-1-yl)pyridin-3-yl)-1H-indazole] | 0.1 to 50 nM | 0.1 to 50 nM | 0.1 to 50 nM | 1 to 50 nM | 1 to 50 nM | 1 to 50 nM | 1 to 50 nM | 1 to 50 nM

Further lines, results first:

Row | IC50 [1] | IC50 [2] | IC50 [3] | Kd (FGFR3 (V555M)) | Kd (FGFR3) | Kd (FGFR1) | Kd (FGFR2) | Kd (FGFR4) | SMILES
11 | 0.1 to 50 nM | 0.1 to 50 nM | 0.1 to 50 nM | 1 to 50 nM | 1 to 50 nM | 1 to 50 nM | 1 to 50 nM | 1 to 50 nM | C[C@@H](Oc1ccc2[nH]nc(-c3cnc(N4CC(C)(N5CCC5)C4)c(F)c3)c2c1)c1c(Cl)cncc1Cl [Example 103, (R)-5-(1-(3,5-dichloropyridin-4-yl)ethoxy)-3-(5-fluoro-6-(3′-methyl-[1,3′-biazetidin]-1′-yl)pyridin-3-yl)-1H-indazole]
12 | 50 to 200 nM | 0.1 to 50 nM | 50 to 200 nM | 1 to 50 nM | 1 to 50 nM | 1 to 50 nM | 1 to 50 nM | 1 to 50 nM | C[C@@H](Oc1ccc2[nH]nc(-c3cnc(N4CC(C)(CN5CCOCC5)C4)c(F)c3)c2c1)c1c(Cl)cncc1Cl [Example 109, (R)-4-((1-(5-(5-(1-(3,5-dichloropyridin-4-yl)ethoxy)-1H-indazol-3-yl)-3-fluoropyridin-2-yl)-3-methylazetidin-3-yl)methyl)morpholine]
13 | 0.1 to 50 nM | 0.1 to 50 nM | 0.1 to 50 nM | 1 to 50 nM | 1 to 50 nM | 1 to 50 nM | 1 to 50 nM | 1 to 50 nM | C[C@H](O)CNC1(C)CN(c2ncc(-c3n[nH]c4ccc(O[C@H](C)c5c(Cl)cncc5Cl)cc34)cc2F)C1 [Example 112, (S)-1-((1-(5-(5-((R)-1-(3,5-dichloropyridin-4-yl)ethoxy)-1H-indazol-3-yl)-3-fluoropyridin-2-yl)-3-methylazetidin-3-yl)amino)propan-2-ol]
14 | 0.1 to 50 nM | 0.1 to 50 nM | 50 to 200 nM | 1 to 50 nM | 1 to 50 nM | 1 to 50 nM | 1 to 50 nM | 1 to 50 nM | C[C@@H](Oc1ccc2[nH]nc(-c3cnc(N4CC(C)(NCC(C)(C)O)C4)c(F)c3)c2c1)c1c(Cl)cncc1Cl [Example 113, (R)-1-((1-(5-(5-(1-(3,5-dichloropyridin-4-yl)ethoxy)-1H-indazol-3-yl)-3-fluoropyridin-2-yl)-3-methylazetidin-3-yl)amino)-2-methylpropan-2-ol]
15 | 0.1 to 50 nM | 0.1 to 50 nM | 0.1 to 50 nM | 1 to 50 nM | 1 to 50 nM | 1 to 50 nM | 1 to 50 nM | 1 to 50 nM | C[C@@H](Oc1ccc2[nH]nc(-c3ccc(N4CC(C)(N5CCC5)C4)nc3)c2c1)c1c(Cl)cncc1Cl [Example 116, 3-[6-[3-(azetidin-1-yl)-3-methyl-azetidin-1-yl]-3-pyridyl]-5-[(1R)-1-(3,5-dichloro-4-pyridyl)ethoxy]-1H-indazole]
16 | 0.1 to 50 nM | 0.1 to 50 nM | 0.1 to 50 nM | 1 to 50 nM | 1 to 50 nM | 1 to 50 nM | 1 to 50 nM | 1 to 50 nM | COc1cc2[nH]nc(-c3cnc(N4CC(C)(NCC5(O)CC5)C4)c(F)c3)c2cc1O[C@H](C)c1c(Cl)cncc1Cl [Example 119, (R)-1-(((1-(5-(5-(1-(3,5-dichloropyridin-4-yl)ethoxy)-6-methoxy-1H-indazol-3-yl)-3-fluoropyridin-2-yl)-3-methylazetidin-3-yl)amino)methyl)cyclo-propan-1-ol]
